Results: a compilation of properties of binary mixtures (doi:10.1007/s10953-016-0490-x)

Assay: xn = mol fraction of the nth substance listed
Details: 100 kPa

CCOC(C)=O + CCCC[n+]1ccn(C)c1.O=S(=O)([O-])C(F)(F)F
x2 = 0
Details | speed of sound [m/s] | viscosity [mPa·s]
303.15 K | 1118.3 | 0.4
308.15 K | 1096 | 0.37
313.15 K | 1073.7 | 0.35
318.15 K | 1051.7 | 0.34
323.15 K | 1029.5 | 0.33

CCCC[n+]1ccn(C)c1.O=S(=O)([O-])C(F)(F)F + CCOC(C)=O
Details | speed of sound [m/s] | viscosity [mPa·s]
298.15 K, x1 = 0.0991 | 1172.2 | 1.27
298.15 K, x1 = 0.1916 | 1209.8 | 4.59
298.15 K, x1 = 0.3056 | 1252.1 | 10.8
298.15 K, x1 = 0.3978 | 1279.4 | 16
298.15 K, x1 = 0.5067 | 1310.3 | 22
298.15 K, x1 = 0.7138 | 1361.8 | 35
298.15 K, x1 = 0.7987 | 1374.2 | 41.8
298.15 K, x1 = 1 | 1393.2 | 82
303.15 K, x1 = 0.0991 | 1153.5 | 0.99
303.15 K, x1 = 0.1916 | 1191.9 | 3.76
303.15 K, x1 = 0.3056 | 1236.1 | 9
303.15 K, x1 = 0.5067 | 1296.5 | 18.5
303.15 K, x1 = 0.6095 | 1324.9 | 23.6
303.15 K, x1 = 0.7138 | 1349.9 | 29.1
303.15 K, x1 = 0.7987 | 1362.1 | 34.7
303.15 K, x1 = 0.8932 | 1371.6 | 44.9
308.15 K, x1 = 0.0991 | 1132.8 | 0.89
308.15 K, x1 = 0.1916 | 1174 | 3.12
308.15 K, x1 = 0.3056 | 1220.2 | 7.3
308.15 K, x1 = 0.3978 | 1251.5 | 10.8
308.15 K, x1 = 0.5067 | 1282.6 | 15.1
308.15 K, x1 = 0.6095 | 1312.1 | 19.6
308.15 K, x1 = 0.7138 | 1338.2 | 24.6
308.15 K, x1 = 0.7987 | 1351 | 29.1
308.15 K, x1 = 0.8932 | 1359.7 | 37.1
308.15 K, x1 = 1 | 1371.7 | 53
313.15 K, x1 = 0.1916 | 1156.4 | 2.89
313.15 K, x1 = 0.3056 | 1204.4 | 6.6
313.15 K, x1 = 0.3978 | 1237.6 | 9.8
313.15 K, x1 = 0.5067 | 1268.7 | 13.5
313.15 K, x1 = 0.6095 | 1300.4 | 17.1
313.15 K, x1 = 0.7138 | 1326.8 | 20.9
313.15 K, x1 = 0.7987 | 1338.3 | 24.6
313.15 K, x1 = 0.8932 | 1349.5 | 31
318.15 K, x1 = 0.0991 | 1091.7 | 0.79
318.15 K, x1 = 0.3056 | 1188.6 | 5.8
318.15 K, x1 = 0.3978 | 1223.7 | 8.5
318.15 K, x1 = 0.5067 | 1254 | 11.7
318.15 K, x1 = 0.6095 | 1288 | 14.8
318.15 K, x1 = 0.7138 | 1314.3 | 18
318.15 K, x1 = 0.7987 | 1326.4 | 21.1
318.15 K, x1 = 0.8932 | 1337.3 | 26.2
323.15 K, x1 = 0.0991 | 1071.3 | 0.75
323.15 K, x1 = 0.1916 | 1120.7 | 2.26
323.15 K, x1 = 0.3056 | 1172.8 | 5
323.15 K, x1 = 0.3978 | 1210.9 | 7.2
323.15 K, x1 = 0.5067 | 1240.3 | 9.9
323.15 K, x1 = 0.6095 | 1274.9 | 12.9
323.15 K, x1 = 0.7138 | 1303.2 | 15.6
323.15 K, x1 = 1 | 1338.8 | 30.6
